Measured values published in patent US20150164762A1, “USE OF ETHANOLAMINE PHOSPHATE” (priority 2012, published 2015).

Test system: BEAS-2B
Test: Comprehensive gene expression analysis with Whole Human Genome DNA microarray after EP treatment
Assay type: cell-based
Protocol: Cells of the established normal human airway epithelial cell line BEAS-2B were used in the experiment. These cells were expansively cultured in 10% FBS RPMI-1640, and seeded at a density of 1×10^5/cm^2 on a 24-well plate. After 24 hours 0.1% FBS RPMI-1640 was substituted, and EP was administered to a final concentration of 0 or 1 mM (n=4). After 24 hours, the cells were used as the DNA microarray samples. RNA was extracted using a QIAGEN RNeasy Mini Kit. The DNA microarray test was performed using a Whole Human Genome DNA microarray 4×44K (Agilent), and the necessary labeling reagents and the like for the DNA microarray test were all from Agilent. The DNA microarray test data were analyzed statistically with GeneSpring (Agilent) dedicated analysis software, and gene function analysis (Gene Ontology (GO) analysis) was performed based on differential expression. The purpose of the GO analysis is to determine stochastically the degree to which gene sets with statistically significant differential expression correspond to known functional classification gene sets. […] The p-value is calculated according to the following formula.

[1] = probe A_23_P306987, 1 mM EP, 24 h
[2] = probe A_23_P315815, NM_004495, EP vs control
[3] = probe A_23_P326913, BC019095, EP vs control
[4] = probe A_23_P336611, 1 mM EP, 24 h
[5] = probe A_23_P337242, 1 mM EP, 24 h
[6] = probe A_23_P344421, 1 mM EP, 24 h
[7] = probe A_23_P346311, 1 mM EP, 24 h
[8] = probe A_23_P358944, 1 mM EP, 24 h
[9] = probe A_23_P360777, NM_013960, EP vs control
[10] = probe A_23_P360797, 1 mM EP, 24 h
[11] = probe A_23_P371727, 1 mM EP, 24 h
[12] = probe A_23_P373521, 1 mM EP, 24 h
[13] = probe A_23_P382775, 1 mM EP, 24 h
[14] = probe A_23_P383278, NM_023078, EP vs control
[15] = probe A_23_P404887, 1 mM EP, 24 h
[16] = probe A_23_P407012, NM_172210, EP vs control
[17] = probe A_23_P411296, 1 mM EP, 24 h
[18] = probe A_23_P426305, NM_003734, EP vs control
[19] = probe A_23_P500034, 1 mM EP, 24 h
[20] = probe A_23_P502553, 1 mM EP, 24 h
[21] = probe A_23_P2094013, 1 mM EP, 24 h
[22] = probe A_24_P4661, 1 mM EP, 24 h
[23] = probe A_24_P12401, NM_001025366, EP vs control
[24] = probe A_24_P18105, NM_032466, EP vs control
[25] = probe A_24_P38363, 1 mM EP, 24 h
[26] = probe A_24_P60930, NM_006129, EP vs control
[27] = probe A_24_P83815, 1 mM EP, 24 h
[28] = probe A_24_P122921, 1 mM EP, 24 h
[29] = probe A_24_P135322, 1 mM EP, 24 h
[30] = probe A_24_P139152, 1 mM EP, 24 h
[31] = probe A_24_P139993, 1 mM EP, 24 h
[32] = probe A_24_P175519, NM_003329, EP vs control
[33] = probe A_24_P179400, NM_001025370, EP vs control
[34] = probe A_24_P193911, 1 mM EP, 24 h
[35] = probe A_24_P200000, NM_182915, EP vs control
[36] = probe A_24_P207479, 1 mM EP, 24 h
[37] = probe A_24_P209047, NM_000879, EP vs control

Q: Which “SOX7 expression R: Ratio to control” value [1] does the source give for `NCCOP(=O)(O)O` [EP, Ethanolamine phosphate] here?
A: The value was 0.338 times.

Q: And the “SOX7 expression log2 [ratio]” value [1]?
A: Its value is −1.568.

Q: And the “NRG1 gene expression, R* ratio to control” value [2]?
A: Its value is 0.666 times.

Q: And the “NRG1 gene expression, log2 [ratio]” value [2]?
A: Its value is −0.586.

Q: And the “PRUNE2 gene expression, R* ratio to control” value [3]?
A: The value was 1.441 times.

Q: What about the “PRUNE2 gene expression, log2 [ratio]” value [3] of the same molecule?
A: Its value is 0.527.

Q: What about the “APAF1 expression R*: Ratio to control” value [4] of the same molecule?
A: The value was 0.420 times.

Q: What about the “APAF1 expression log2 [ratio]” value [4] of the same molecule?
A: Its value is −1.253.

Q: And the “TGFBR2 expression R*: Ratio to control” value [5]?
A: The value was 1.630 times.

Q: And the “TGFBR2 expression log2 [ratio]” value [5]?
A: Its value is 0.705.

Q: What about the “ROBO4 expression R*: Ratio to control” value [6] of the same molecule?
A: The value was 1.633 times.

Q: And the “ROBO4 expression log2 [ratio]” value [6]?
A: The value was 0.707.

Q: And the “BAX expression R*: Ratio to control” value [7]?
A: The value was 0.511 times.

Q: And the “BAX expression log2 [ratio]” value [7]?
A: Its value is −0.969.

Q: What about the “PML expression R: Ratio to control” value [8] of the same molecule?
A: The value was 0.586 times.

Q: And the “PML expression log2 [ratio]” value [8]?
A: Its value is −0.770.

Q: And the “NRG1 gene expression, R* ratio to control” value [9]?
A: Its value is 0.651 times.

Q: What about the “NRG1 gene expression, log2 [ratio]” value [9] of the same molecule?
A: Its value is −0.620.

Q: And the “NTF3 expression R: Ratio to control” value [10]?
A: Its value is 0.492 times.

Q: What about the “NTF3 expression log2 [ratio]” value [10] of the same molecule?
A: The value was −1.024.

Q: And the “CKS2 expression R*: Ratio to control” value [11]?
A: The value was 1.510 times.

Q: What about the “CKS2 expression log2 [ratio]” value [11] of the same molecule?
A: Its value is 0.595.

Q: What about the “HAND2 expression R*: Ratio to control” value [12] of the same molecule?
A: Its value is 1.971 times.

Q: And the “HAND2 expression log2 [ratio]” value [12]?
A: The value was 0.979.

Q: And the “BBC3 expression R*: Ratio to control” value [13]?
A: The value was 0.315 times.

Q: And the “BBC3 expression log2 [ratio]” value [13]?
A: Its value is −1.566.

Q: And the “PYCRL gene expression, R* ratio to control” value [14]?
A: Its value is 1.441 times.

Q: What about the “PYCRL gene expression, log2 [ratio]” value [14] of the same molecule?
A: The value was 0.527.

Q: What about the “BIK expression R*: Ratio to control” value [15] of the same molecule?
A: Its value is 0.298 times.

Q: And the “BIK expression log2 [ratio]” value [15]?
A: The value was −1.743.

Q: And the “CSF1 gene expression, R* ratio to control” value [16]?
A: The value was 0.593 times.

Q: And the “CSF1 gene expression, log2 [ratio]” value [16]?
A: The value was −0.753.

Q: What about the “CEBPB expression R*: Ratio to control” value [17] of the same molecule?
A: The value was 0,383 times.

Q: What about the “CEBPB expression log2 [ratio]” value [17] of the same molecule?
A: The value was −1.385.

Q: What about the “AOC3 gene expression, R* ratio to control” value [18] of the same molecule?
A: Its value is 1.540 times.

Q: And the “AOC3 gene expression, log2 [ratio]” value [18]?
A: Its value is 0.623.

Q: And the “GL12 expression R*: Ratio to control” value [19]?
A: The value was 2.060 times.

Q: And the “GL12 expression log2 [ratio]” value [19]?
A: The value was 1.043.

Q: And the “TRIM35 expression R*: Ratio to control” value [20]?
A: Its value is 0.618 times.

Q: What about the “TRIM35 expression log2 [ratio]” value [20] of the same molecule?
A: Its value is −0.695.

Q: And the “CASP10 expression R*: Ratio to control” value [21]?
A: The value was 0.552 times.

Q: And the “CASP10 expression log2 [ratio]” value [21]?
A: The value was −0.857.

Q: And the “E124 expression R*: Ratio to control” value [22]?
A: Its value is 0.652 times.

Q: What about the “E124 expression log2 [ratio]” value [22] of the same molecule?
A: Its value is −0.618.

Q: And the “VEGFA gene expression, R* ratio to control” value [23]?
A: Its value is 0.540 times.

Q: And the “VEGFA gene expression, log2 [ratio]” value [23]?
A: The value was −0.889.

Q: What about the “ASPH gene expression, R* ratio to control” value [24] of the same molecule?
A: The value was 1.560 times.

Q: What about the “ASPH gene expression, log2 [ratio]” value [24] of the same molecule?
A: Its value is 0.642.

Q: And the “MYC expression R*: Ratio to control” value [25]?
A: The value was 1.686 times.

Q: What about the “MYC expression log2 [ratio]” value [25] of the same molecule?
A: Its value is 0.754.

Q: And the “BMP1 gene expression, R* ratio to control” value [26]?
A: The value was 0.613 times.

Q: And the “BMP1 gene expression, log2 [ratio]” value [26]?
A: The value was −0.706.

Q: And the “NLRP1 expression R*: Ratio to control” value [27]?
A: The value was 0.558 times.

Q: What about the “NLRP1 expression log2 [ratio]” value [27] of the same molecule?
A: The value was −0.841.

Q: What about the “BCL2L11 expression R*: Ratio to control” value [28] of the same molecule?
A: The value was 0.636 times.

Q: What about the “BCL2L11 expression log2 [ratio]” value [28] of the same molecule?
A: The value was −0.652.

Q: And the “NRP1 expression R*: Ratio to control” value [29]?
A: Its value is 1.664 times.

Q: What about the “NRP1 expression log2 [ratio]” value [29] of the same molecule?
A: The value was 0.735.

Q: And the “COL8A1 expression R*: Ratio to control” value [30]?
A: The value was 1.703 times.

Q: What about the “COL8A1 expression log2 [ratio]” value [30] of the same molecule?
A: The value was 0.768.

Q: What about the “CASP10 expression R*: Ratio to control” value [31] of the same molecule?
A: Its value is 0.609 times.

Q: And the “CASP10 expression log2 [ratio]” value [31]?
A: The value was −0.716.

Q: And the “TXN gene expression, R* ratio to control” value [32]?
A: The value was 1.438 times.

Q: And the “TXN gene expression, log2 [ratio]” value [32]?
A: Its value is 0.524.

Q: What about the “VEGFA gene expression, R* ratio to control” value [33] of the same molecule?
A: The value was 0.650 times.

Q: And the “VEGFA gene expression, log2 [ratio]” value [33]?
A: Its value is −0.621.

Q: And the “MAPRE2 expression R*: Ratio to control” value [34]?
A: Its value is 1.666 times.

Q: And the “MAPRE2 expression log2 [ratio]” value [34]?
A: The value was 0.736.

Q: And the “STEAP3 gene expression, R* ratio to control” value [35]?
A: Its value is 2.009 times.

Q: What about the “STEAP3 gene expression, log2 [ratio]” value [35] of the same molecule?
A: The value was 1.007.

Q: And the “DEDD2 expression R*: Ratio to control” value [36]?
A: Its value is 0.597 times.

Q: What about the “DEDD2 expression log2 [ratio]” value [36] of the same molecule?
A: The value was −0.744.

Q: And the “IL5 gene expression, R* ratio to control” value [37]?
A: Its value is 0.304 times.

Q: What about the “IL5 gene expression, log2 [ratio]” value [37] of the same molecule?
A: Its value is −1.719.
